Test results reported in patent publication US5541174A, “Analgesic method” (priority 1995, dated 1996).
Where two headings read alike, the source gives them in different places.

Legend:
[1] = system: adjuvant-induced arthritic pain in rats; assay: Adjuvant-induced arthritic pain; assay type: in vivo, male Sprague-Dawley rats
From the text: 2. Adjuvant-induced arthritic pain as described in:
S. KUZNA, et al., Measurement of Arthritic Pain and Effects of Analgesics in the Adjuvant-Treated Rat, Chem. Pharm. Bull. 23, 1184-1191 (1975);
C. A. WINTER, et al., Analgesic Activity of Diflunisal in Rats with Hyperalygesia Induced by Freud's Adjuvant, J. Pharmacol. Exp. Ther. 211, 678-685 (1979; and
M. E. ROSENTHALE, et al., Adjuvant Arthritis:Immuno-Pathological and Hyperalgesic Features, Fed. Proced. 41, 2577-2582 (1982),
incorporated by reference herein.
Groups of 5-6 male Sprague-Dawley rats (Taisho Pharmaceutical Co. Research Center) weighing 140 to 160 g at the time of Mycobacterium butyricum (adjuvant, Difco Laboratories, Detroit, Mich.) injection were used to study each compound. Rats were injected intradermally at the base of the tail with 0.1 ml of a parafin oil suspension of 0.5 mg of heat-killed mycobacterium. Fifteen to 19 days later, drugs were administered orally or subcutaneously in 0.5 ml of vehicle per 100 g of body weight to rats showing the nociceptive reaction, vocalization following a gentle flexion of the tarsal-tibial joint of the inflamed hind-paw. Vocalization responses were measured every hour for 5 hours. […] The ED50 value and 95% confidence limits were calculated from the positive rate for non-treated controls, vehicle-treated adjuvant arthritic rats, by the method of Litchfield and Wilcoxin.
All drugs were suspended with 5% gum arabic in saline solution or wetted with enough propylene glycol to give a final concentration of 4% propylene glycol and the wetted solid suspended in 1.4% polyvinyl alcohol in saline.

[2] = system: acetic acid induced writhing in mice; assay: Acetic acid-induced writhing test; assay type: in vivo, ICR male mice
Experimental: 1. Acetic acid-induced writhing test as described in Koster et al., "Acetic Acid for Analgesic Screening", Fed. Proc. 18, 412 (1959), incorporated by reference herein; and
Groups of 10 ICR male mice (Taisho Pharmaceutical Co. Research Center) were used to study each dose of every compound. Ligands or complexes were administered orally or subcutaneously in 0.1 ml of vehicle per 10 g of body weight 30 minutes before the intrapertioneal injection of 0.1 ml of 0.7% acetic acid solution per 10 g of body weight. Number of writhes were counted for each mouse during a period of 10 to 20 min after acetic acid injection. Inhibitory percent was calculated by comparison with the number of writhes in the non-treated control, vehicle-treated, and acetic acid-injected group. The ED50 value and 95% confidence limits were calculated from the inhibitory percent by the method of Litchfield and Wilcoxon.

[3] = oral, 5% gum arabic, 0.45 mmol/kg
[4] = oral, 5% gum arabic, 0.90 mmol/kg
[5] = oral, 5% gum arabic, 1.46 mmol/kg
[6] = oral, 5% gum arabic, 0.56 mmol/kg
[7] = oral, 5% gum arabic, 1.11 mmol/kg

How did the ED50 ([1]; oral, 5% gum arabic in saline) turn out when `CC(C)c1cc(C(=O)O)c(O)c(C(C)C)c1` [3,5-Dips, 3,5-diisopropylsalicylic acid, reference compound] was run?
The ED50 was 0.36 mmol/kg.

What about the “% Inhibition” value ([1]; oral, 5% gum arabic, 0.22 mmol/kg) of the same compound?
The value was 30%.

And the “% Inhibition” value [1, 3]?
The value was 53%.

What about the “% Inhibition” value [1, 4] of the same compound?
The value was 92%.

What about the ED50 ([1]; oral, PG-PVA in saline) of the same compound?
The ED50 was over 0.90 mmol/kg.

What about the “% Inhibition” value ([1]; oral, PG-PVA, 0.45 mmol/kg) of the same compound?
The value was 27%.

And the “% Inhibition” value ([1]; oral, PG-PVA, 0.90 mmol/kg)?
Its value is 43%.

And the ED50 ([2]; oral, 5% gum arabic in saline)?
The ED50 was 0.27 mmol/kg.

What about the “% Inhibition” value [2, 3] of the same compound?
Its value is 66%.

What about the “% Inhibition” value [2, 4] of the same compound?
Its value is 88%.

And the ED50 ([2]; oral, PG-PVA in saline)?
The ED50 was 0.44 mmol/kg.

What about the “% Inhibition” value ([2]; oral, PG-PVA, 0.45 mmol/kg) of the same compound?
The value was 56%.

What about the “% Inhibition” value ([2]; oral, PG-PVA, 0.90 mmol/kg) of the same compound?
The value was 78%.

And the ED50 ([2]; s.c., PG-PVA in saline)?
Its ED50 is 0.23 mmol/kg.

And the “% Inhibition” value ([2]; s.c., PG-PVA, 0.11 mmol/kg)?
The value was 22%.

What about the “% Inhibition” value ([2]; s.c., PG-PVA, 0.23 mmol/kg) of the same compound?
The value was 49%.

And the “% Inhibition” value ([2]; s.c., PG-PVA, 0.45 mmol/kg)?
The value was 91%.

What does the source list for `Nc1ccccc1C(=O)O` [Anthranilic acid, reference compound]?
ED50 ([1]; oral, 5% gum arabic in saline): 0.83 mmol/kg; % Inhibition ([1]; oral, 5% gum arabic, 0.36 mmol/kg): 23%; % Inhibition ([1]; oral, 5% gum arabic, 0.73 mmol/kg): 41%; % Inhibition [1, 5]: 73%; ED50 ([1]; oral, PG-PVA in saline): > 1.44 mmol/kg; % Inhibition ([1]; oral, PG-PVA, 1.46 mmol/kg): 37%; ED50 ([2]; oral, 5% gum arabic in saline): > 1.46 mmol/kg; % Inhibition [2, 5]: 18%; ED50 ([2]; oral, PG-PVA in saline): > 2.19 mmol/kg; % Inhibition ([2]; oral, PG-PVA, 2.19 mmol/kg): 45%; ED50 ([2]; s.c., PG-PVA in saline): 0.64 mmol/kg; % Inhibition ([2]; s.c., PG-PVA, 0.27 mmol/kg): 30%; % Inhibition ([2]; s.c., PG-PVA, 0.55 mmol/kg): 36%; % Inhibition ([2]; s.c., PG-PVA, 1.09 mmol/kg): 71%

Which results are given for `CC(=O)Oc1ccccc1C(=O)O` [Aspirin, acetylsalicylic acid, reference compound]?
ED50 ([1]; oral, 5% gum arabic in saline): 0.62 mmol/kg; % Inhibition ([1]; oral, 5% gum arabic, 0.28 mmol/kg): 27%; % Inhibition [1, 6]: 43%; % Inhibition [1, 7]: 70%; ED50 ([1]; oral, PG-PVA in saline): 1.41 mmol/kg; % Inhibition ([1]; oral, PG-PVA, 0.56 mmol/kg): 30%; % Inhibition ([1]; oral, PG-PVA, 1.11 mmol/kg): 40%; % Inhibition ([1]; oral, PG-PVA, 2.22 mmol/kg): 63%; ED50 ([2]; oral, 5% gum arabic in saline): 1.30 mmol/kg; % Inhibition [2, 6]: 29%; % Inhibition [2, 7]: 42%; % Inhibition ([2]; oral, 5% gum arabic, 2.22 mmol/kg): 66%; ED50 ([2]; oral, PG-PVA in saline): 0.48 mmol/kg; % Inhibition ([2]; oral, PG-PVA, 0.21 mmol/kg): 32%; % Inhibition ([2]; oral, PG-PVA, 0.42 mmol/kg): 41%; % Inhibition ([2]; oral, PG-PVA, 0.84 mmol/kg): 67%; ED50 ([2]; s.c., PG-PVA in saline): 0.52 mmol/kg; % Inhibition ([2]; s.c., PG-PVA, 0.28 mmol/kg): 28%; % Inhibition ([2]; s.c., PG-PVA, 0.56 mmol/kg): 57%; % Inhibition ([2]; s.c., PG-PVA, 1.11 mmol/kg): 71%

How did the “activity versus other copper complexes and parent ligand” value ([2]; Table VI) turn out when `NCC(=O)[O-].NCC(=O)[O-].[Cu+2]` [Cu(II)(glycinate)2] was run?
Its value is “less active than the other copper complexes”.

And the ED50 ([2]; oral, 5% gum arabic in saline)?
The ED50 was over 1.89 mmol/kg.

And the “% Inhibition” value ([2]; oral, 5% gum arabic, 1.89 mmol/kg)?
Its value is 48%.

For `NCC(=O)O` [Glycine, reference compound], which ED50 ([2]; oral, 5% gum arabic in saline) is on record?
The ED50 was over 5.33 mmol/kg.

And the “% Inhibition” value ([2]; oral, 5% gum arabic, 5.33 mmol/kg)?
Its value is 36%.

Which ED50 ([2]; oral, 5% gum arabic in saline) does the source give for `C[C@H](N)C(=O)O` [L-alanine, reference compound] here?
The ED50 was over 4.49 mmol/kg.

What about the “% Inhibition” value ([2]; oral, 5% gum arabic, 4.49 mmol/kg) of the same compound?
Its value is 14%.

Which ED50 ([2]; oral, 5% gum arabic in saline) does the source give for `N[C@@H](CS)C(=O)O` [L-cysteine, reference compound] here?
The ED50 was over 3.30 mmol/kg.

What about the “% Inhibition” value ([2]; oral, 5% gum arabic, 3.30 mmol/kg) of the same compound?
The value was -5%.

Which ED50 ([1]; Rattus norvegicus, sc, read-out: ED50 (AA)) does the source give for `CN1CC[C@]23c4c5ccc(O)c4O[C@H]2[C@@H](O)C=C[C@H]3[C@H]1C5` [morphine, reference compound] here?
Its ED50 is 0.002 mmol/kg.

What about the “ED50 (AA)” value ([1]; s.c., hydrochloride salt in saline) of the same compound?
Its value is 0.002 mmol/kg.

What about the “% Inhibition” value ([1]; s.c., hydrochloride salt in saline, 0.001 mmol/kg) of the same compound?
Its value is 20%.

And the “% Inhibition” value ([1]; s.c., hydrochloride salt in saline, 0.002 mmol/kg)?
The value was 40%.

What about the “% Inhibition” value ([1]; s.c., hydrochloride salt in saline, 0.004 mmol/kg) of the same compound?
Its value is 60%.
